Results as given in US11497212B2, “Substituted thiophenyl uracils, salts thereof and the use thereof as herbicidal agents” (Syngenta Crop Protection AG, priority 2017, dated 2022).

How the values were obtained:
Format in all cases: in vivo
[1] = test system: Zea mays; assay: Crop compatibility post-emergence (greenhouse pot trial)
Method in brief: (§1)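 Crops grown in sandy loam in greenhouse, sprayed at one-leaf stage (2–3 weeks after sowing) with WP or EC formulations in water plus 0.5% additive, 600 L/ha. Damage scored visually after about 3 weeks versus untreated controls, 0% = like control, 100% = dead.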

[2] = test system: Oryza sativa; assay: as above; conditions: application rate 20 g/ha
Method in brief: as §1

[3] = test system: Triticum aestivum; assay: as above
Method in brief: as §1

[4] = test system: Glycine max; assay: as above; conditions: application rate 5 g/ha
Method in brief: as §1

[5] = test system: Viola tricolor; assay: Herbicidal action pre-emergence (greenhouse pot trial); conditions: application rate 80 g/ha, scored after about 3 weeks
Excerpt: (§2) Seeds of mono- and dicotyledonous weeds and crop plants were laid out in plastic or organic plant pots and covered with soil. The compounds of the invention formulated in the form of wettable powders (WP) or emulsion concentrates (EC) were then applied to the surface of the covering soil as an aqueous suspension or emulsion with addition of 0.5% additive at a water application rate equivalent to 600 L/ha. After the treatment, the pots were placed in a greenhouse and kept under good growth conditions for the test plants. After about 3 weeks, the efficacy of the preparations was scored visually as a percentage by comparison with untreated controls. For example, 100% efficacy=plants have died, 0% efficacy=like control plants. Tables B1 to B16 below show the efficacies of selected compounds of the general formula (I) according to tables I.1 to I.60 on various harmful plants and an application rate corresponding to 320 g/ha or lower that were obtained by the aforementioned trial method.

[6] = test system: Abutilon theophrasti; assay: as above; conditions: application rate 80 g/ha, scored after about 3 weeks
Excerpt: as §2

[7] = test system: Amaranthus retroflexus; assay: as above; conditions: application rate 80 g/ha, scored after about 3 weeks
Excerpt: as §2

[8] = test system: Matricaria inodora; assay: as above; conditions: application rate 80 g/ha, scored after about 3 weeks
Excerpt: as §2

[9] = test system: Viola tricolor; assay: Herbicidal action post-emergence (greenhouse pot trial); conditions: application rate 20 g/ha
Method in brief: (§3)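 Sowing in sandy loam, then 2–3 weeks of controlled greenhouse growth. Next, one-leaf-stage plants received a foliar spray of the WP- or EC-formulated compound with 0.5% additive (600 L/ha water, application rate of 80 g/ha or below). Finally, after about 3 weeks under optimal conditions, effect was judged by eye against controls.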

[10] = test system: Abutilon theophrasti; assay: as above; conditions: application rate 20 g/ha, scored visually after about 3 weeks vs untreated controls
Method in brief: as §3

[11] = test system: Polygonum convolvulus; assay: as above; conditions: application rate 20 g/ha, scored visually after about 3 weeks vs untreated controls
Method in brief: as §3

[12] = test system: Amaranthus retroflexus; assay: as above; conditions: application rate 20 g/ha, scored visually after about 3 weeks vs untreated controls
Method in brief: as §3

[13] = test system: Matricaria inodora; assay: as above; conditions: application rate 20 g/ha, scored visually after about 3 weeks vs untreated controls
Method in brief: as §3

[14] = test system: Veronica persica; assay: as above; conditions: application rate 20 g/ha
Method in brief: as §3

[15] = test system: Pharbitis purpurea; assay: as above; conditions: application rate 20 g/ha
Method in brief: as §3

[16] = test system: Zea mays; assay: Crop compatibility pre-emergence (greenhouse pot trial); conditions: application rate 80 g/ha, effect vs untreated controls
Excerpt: as §2, with “plants.” for “plants. Tables B1 to B16 below show the efficacies of selected compounds of the general formula (I) according to tables I.1 to I.60 on various harmful plants and an application rate corresponding to 320 g/ha or lower that were obtained by the aforementioned trial method.”
Crop compatibilities were also scored correspondingly.
The effects observed are reported here on selected crop plants by comparison with the untreated controls (values in %).

[17] = test system: Setaria viridis; assay: Herbicidal action post-emergence (greenhouse pot trial); conditions: application rate 20 g/ha, scored visually after about 3 weeks vs untreated controls
Method in brief: as §3

[18] = test system: Digitaria sanguinalis; assay: as above; conditions: application rate 20 g/ha
Method in brief: as §3

[19] = test system: Stellaria media; assay: as above; conditions: application rate 20 g/ha, scored visually after about 3 weeks vs untreated controls
Method in brief: as §3

[20] = test system: Hordeum murinum; assay: as above; conditions: application rate 20 g/ha, scored visually after about 3 weeks vs untreated controls
Method in brief: as §3

[21] = test system: Echinochloa crus-galli; assay: as above; conditions: application rate 20 g/ha, scored visually after about 3 weeks vs untreated controls
Method in brief: as §3

[22] = test system: Alopecurus myosuroides; assay: as above; conditions: application rate 20 g/ha, scored visually after about 3 weeks vs untreated controls
Method in brief: as §3

Oryza sativa (Efficacy in %) [2]	Triticum aestivum (Efficacy in %) ([3]; application rate 5 g/ha)	Glycine max (Efficacy in %) [4]	Zea mays (Efficacy in %) ([1]; application rate 5 g/ha)	Structure (SMILES)	Viola tricolor (Efficacy in %) [9]	Abutilon theophrasti (Efficacy in %) [10]	Polygonum convolvulus (Efficacy in %) [11]	Amaranthus retroflexus (Efficacy in %) [12]	Matricaria inodora (Efficacy in %) [13]	Veronica persica (Efficacy in %) [14]	Pharbitis purpurea (Efficacy in %) [15]	Setaria viridis (Efficacy in %) [17]	Stellaria media (Efficacy in %) [19]	Echinochloa crus-galli (Efficacy in %) [21]	further results
0%	10%	20%	–	CC(Sc1cc(-n2c(=O)cc(C(F)(F)F)n(C)c2=O)c(F)cc1Cl)C(=O)NCC1CCOC1(C)C (centres unmarked) [I.1-227]	80%	100%	100%	100%	100%	100%	100%	–	–	–	Zea mays (Efficacy in %) ([1]; application rate 20 g/ha): 20%; Viola tricolor (Efficacy in %) [5]: 80%; Abutilon theophrasti (Efficacy in %) [6]: 100%; Amaranthus retroflexus (Efficacy in %) [7]: 100%; Matricaria inodora (Efficacy in %) [8]: 90%; Zea mays (Efficacy in %) [16]: 0%
–	10%	–	–	CC(Sc1cc(-n2c(=O)cc(C(F)(F)F)n(C)c2=O)c(F)cc1Cl)C(=O)OCCCSC(F)(F)F (centres unmarked) [I.1-48]	100%	100%	100%	100%	100%	100%	100%	100%	100%	100%	Digitaria sanguinalis (Efficacy in %) [18]: 100%; Hordeum murinum (Efficacy in %) [20]: 80%
0%	0%	0%	0%	CCC(Sc1cc(-n2c(=O)c(C)c(C(F)(F)F)n(C)c2=O)c(F)cc1Cl)C(=O)OCC1CCCCO1 (centres unmarked) [I.12-91]	100%	100%	80%	100%	80%	100%	100%	80%	100%	100%	Alopecurus myosuroides (Efficacy in %) [22]: 80%
20%	–	20%	0%	CCC(Sc1cc(-n2c(=O)c(C)c(C(F)(F)F)n(C)c2=O)c(F)cc1Cl)C(=O)OCC1CCOC1 (centres unmarked) [I.12-72, Tetrahydrofuran-3-ylmethyl 2-({2-chloro-4-fluoro-5-[3,5-dimethyl-2,6-dioxo-4-(trifluoromethyl)-3,6-dihydropyrimidin-1(2H)-yl]phenyl}sulfanyl)butanoate]	100%	100%	100%	100%	100%	100%	–	–	100%	100%	Triticum aestivum (Efficacy in %) ([3]; application rate 20 g/ha): 0%
